Measurements taken from BigSolDB 2.1.

Conditions: in acetic acid, 288.15 K

| solubility (mole fraction) | SMILES |
| --- | --- |
| 0.0333 | O=C(O)CCCCCCCC(=O)O |
| 0.0648 | O=C(O)CCCCCC(=O)O |
| 0.0115 | O=C(O)CCCCCCC(=O)O |
| 0.173 | O=C(O)CCCC(=O)O |

Same assay, conditions: in acetic acid, 293.15 K

| solubility (mole fraction) | SMILES |
| --- | --- |
| 0.04 | O=C(O)CCCCCCCC(=O)O |
| 0.0794 | O=C(O)CCCCCC(=O)O |
| 0.0145 | O=C(O)CCCCCCC(=O)O |
| 0.196 | O=C(O)CCCC(=O)O |

Same assay, conditions: in acetic acid, 298.15 K

| solubility (mole fraction) | SMILES |
| --- | --- |
| 0.0524 | O=C(O)CCCCCCCC(=O)O |
| 0.0964 | O=C(O)CCCCCC(=O)O |
| 0.0176 | O=C(O)CCCCCCC(=O)O |
| 0.221 | O=C(O)CCCC(=O)O |

Same assay, conditions: in acetic acid, 303.15 K

| solubility (mole fraction) | SMILES |
| --- | --- |
| 0.0631 | O=C(O)CCCCCCCC(=O)O |
| 0.119 | O=C(O)CCCCCC(=O)O |
| 0.0216 | O=C(O)CCCCCCC(=O)O |
| 0.241 | O=C(O)CCCC(=O)O |

Same assay, conditions: in acetic acid, 308.15 K

| solubility (mole fraction) | SMILES |
| --- | --- |
| 0.0761 | O=C(O)CCCCCCCC(=O)O |
| 0.14 | O=C(O)CCCCCC(=O)O |
| 0.0264 | O=C(O)CCCCCCC(=O)O |
| 0.276 | O=C(O)CCCC(=O)O |

Same assay, conditions: in acetic acid, 315.15 K

| solubility (mole fraction) | SMILES |
| --- | --- |
| 0.0923 | O=C(O)CCCCCCCC(=O)O |
| 0.169 | O=C(O)CCCCCC(=O)O |
| 0.0329 | O=C(O)CCCCCCC(=O)O |
| 0.31 | O=C(O)CCCC(=O)O |

Same assay, conditions: in acetic acid, 318.15 K

| solubility (mole fraction) | SMILES |
| --- | --- |
| 0.111 | O=C(O)CCCCCCCC(=O)O |
| 0.199 | O=C(O)CCCCCC(=O)O |
| 0.0405 | O=C(O)CCCCCCC(=O)O |
| 0.341 | O=C(O)CCCC(=O)O |

Same assay, conditions: in acetic acid, 323.15 K

| solubility (mole fraction) | SMILES |
| --- | --- |
| 0.133 | O=C(O)CCCCCCCC(=O)O |
| 0.232 | O=C(O)CCCCCC(=O)O |
| 0.0501 | O=C(O)CCCCCCC(=O)O |
| 0.385 | O=C(O)CCCC(=O)O |

Same assay, conditions: in acetone, 288.15 K

| solubility (mole fraction) | SMILES |
| --- | --- |
| 0.029 | O=C(O)CCCCCCCC(=O)O |
| 0.0546 | O=C(O)CCCCCC(=O)O |
| 0.0092 | O=C(O)CCCCCCC(=O)O |
| 0.183 | O=C(O)CCCC(=O)O |

Same assay, conditions: in acetone, 293.15 K

| solubility (mole fraction) | SMILES |
| --- | --- |
| 0.0331 | O=C(O)CCCCCCCC(=O)O |
| 0.0752 | O=C(O)CCCCCC(=O)O |
| 0.0127 | O=C(O)CCCCCCC(=O)O |
| 0.207 | O=C(O)CCCC(=O)O |

Same assay, conditions: in acetone, 298.15 K

| solubility (mole fraction) | SMILES |
| --- | --- |
| 0.04 | O=C(O)CCCCCCCC(=O)O |
| 0.118 | O=C(O)CCCCCC(=O)O |
| 0.0167 | O=C(O)CCCCCCC(=O)O |
| 0.237 | O=C(O)CCCC(=O)O |

Same assay, conditions: in acetone, 303.15 K

| solubility (mole fraction) | SMILES |
| --- | --- |
| 0.0494 | O=C(O)CCCCCCCC(=O)O |
| 0.146 | O=C(O)CCCCCC(=O)O |
| 0.021 | O=C(O)CCCCCCC(=O)O |
| 0.264 | O=C(O)CCCC(=O)O |

Same assay, conditions: in acetone, 308.15 K

| solubility (mole fraction) | SMILES |
| --- | --- |
| 0.0634 | O=C(O)CCCCCCCC(=O)O |
| 0.174 | O=C(O)CCCCCC(=O)O |
| 0.025 | O=C(O)CCCCCCC(=O)O |
| 0.329 | O=C(O)CCCC(=O)O |

Same assay, conditions: in acetone, 315.15 K

| solubility (mole fraction) | SMILES |
| --- | --- |
| 0.0806 | O=C(O)CCCCCCCC(=O)O |
| 0.202 | O=C(O)CCCCCC(=O)O |
| 0.0301 | O=C(O)CCCCCCC(=O)O |
| 0.324 | O=C(O)CCCC(=O)O |

Same assay, conditions: in acetone, 318.15 K

| solubility (mole fraction) | SMILES |
| --- | --- |
| 0.103 | O=C(O)CCCCCCCC(=O)O |
| 0.224 | O=C(O)CCCCCC(=O)O |
| 0.0356 | O=C(O)CCCCCCC(=O)O |
| 0.375 | O=C(O)CCCC(=O)O |

Same assay, conditions: in acetone, 323.15 K

| solubility (mole fraction) | SMILES |
| --- | --- |
| 0.143 | O=C(O)CCCCCCCC(=O)O |
| 0.246 | O=C(O)CCCCCC(=O)O |
| 0.0405 | O=C(O)CCCCCCC(=O)O |
| 0.417 | O=C(O)CCCC(=O)O |

Same assay, conditions: in ethanol, 288.15 K

| solubility (mole fraction) | SMILES |
| --- | --- |
| 0.0534 | O=C(O)CCCCCCCC(=O)O |
| 0.0677 | O=C(O)CCCCCC(=O)O |
| 0.0208 | O=C(O)CCCCCCC(=O)O |
| 0.136 | O=C(O)CCCC(=O)O |

Same assay, conditions: in ethanol, 293.15 K

| solubility (mole fraction) | SMILES |
| --- | --- |
| 0.0601 | O=C(O)CCCCCCCC(=O)O |
| 0.0851 | O=C(O)CCCCCC(=O)O |
| 0.0253 | O=C(O)CCCCCCC(=O)O |
| 0.158 | O=C(O)CCCC(=O)O |

Same assay, conditions: in ethanol, 298.15 K

| solubility (mole fraction) | SMILES |
| --- | --- |
| 0.0707 | O=C(O)CCCCCCCC(=O)O |
| 0.104 | O=C(O)CCCCCC(=O)O |
| 0.031 | O=C(O)CCCCCCC(=O)O |
| 0.176 | O=C(O)CCCC(=O)O |

Same assay, conditions: in ethanol, 303.15 K

| solubility (mole fraction) | SMILES |
| --- | --- |
| 0.0851 | O=C(O)CCCCCCCC(=O)O |
| 0.126 | O=C(O)CCCCCC(=O)O |
| 0.0375 | O=C(O)CCCCCCC(=O)O |
| 0.201 | O=C(O)CCCC(=O)O |

Same assay, conditions: in ethanol, 308.15 K

| solubility (mole fraction) | SMILES |
| --- | --- |
| 0.102 | O=C(O)CCCCCCCC(=O)O |
| 0.15 | O=C(O)CCCCCC(=O)O |
| 0.0454 | O=C(O)CCCCCCC(=O)O |
| 0.228 | O=C(O)CCCC(=O)O |

Same assay, conditions: in ethanol, 315.15 K

| solubility (mole fraction) | SMILES |
| --- | --- |
| 0.124 | O=C(O)CCCCCCCC(=O)O |
| 0.178 | O=C(O)CCCCCC(=O)O |
| 0.0553 | O=C(O)CCCCCCC(=O)O |
| 0.274 | O=C(O)CCCC(=O)O |

Same assay, conditions: in ethanol, 318.15 K

| solubility (mole fraction) | SMILES |
| --- | --- |
| 0.15 | O=C(O)CCCCCCCC(=O)O |
| 0.204 | O=C(O)CCCCCC(=O)O |
| 0.0683 | O=C(O)CCCCCCC(=O)O |
| 0.322 | O=C(O)CCCC(=O)O |

Same assay, conditions: in ethanol, 323.15 K

| solubility (mole fraction) | SMILES |
| --- | --- |
| 0.185 | O=C(O)CCCCCCCC(=O)O |
| 0.237 | O=C(O)CCCCCC(=O)O |
| 0.0847 | O=C(O)CCCCCCC(=O)O |
| 0.35 | O=C(O)CCCC(=O)O |

Same assay, conditions: in ethyl acetate, 288.15 K

| solubility (mole fraction) | SMILES |
| --- | --- |
| 0.00911 | O=C(O)CCCCCCCC(=O)O |
| 0.0233 | O=C(O)CCCCCC(=O)O |
| 0.00238 | O=C(O)CCCCCCC(=O)O |
| 0.0861 | O=C(O)CCCC(=O)O |

Same assay, conditions: in ethyl acetate, 293.15 K

| solubility (mole fraction) | SMILES |
| --- | --- |
| 0.0113 | O=C(O)CCCCCCCC(=O)O |
| 0.0321 | O=C(O)CCCCCC(=O)O |
| 0.00302 | O=C(O)CCCCCCC(=O)O |
| 0.105 | O=C(O)CCCC(=O)O |

Same assay, conditions: in ethyl acetate, 298.15 K

| solubility (mole fraction) | SMILES |
| --- | --- |
| 0.0162 | O=C(O)CCCCCCCC(=O)O |
| 0.0517 | O=C(O)CCCCCC(=O)O |
| 0.00389 | O=C(O)CCCCCCC(=O)O |
| 0.123 | O=C(O)CCCC(=O)O |

Same assay, conditions: in ethyl acetate, 303.15 K

| solubility (mole fraction) | SMILES |
| --- | --- |
| 0.0232 | O=C(O)CCCCCCCC(=O)O |
| 0.0718 | O=C(O)CCCCCC(=O)O |
| 0.00513 | O=C(O)CCCCCCC(=O)O |
| 0.133 | O=C(O)CCCC(=O)O |

Same assay, conditions: in ethyl acetate, 308.15 K

| solubility (mole fraction) | SMILES |
| --- | --- |
| 0.0326 | O=C(O)CCCCCCCC(=O)O |
| 0.0802 | O=C(O)CCCCCC(=O)O |
| 0.00641 | O=C(O)CCCCCCC(=O)O |
| 0.146 | O=C(O)CCCC(=O)O |

Same assay, conditions: in ethyl acetate, 315.15 K

| solubility (mole fraction) | SMILES |
| --- | --- |
| 0.0524 | O=C(O)CCCCCCCC(=O)O |
| 0.0904 | O=C(O)CCCCCC(=O)O |
| 0.00819 | O=C(O)CCCCCCC(=O)O |
| 0.176 | O=C(O)CCCC(=O)O |

Same assay, conditions: in ethyl acetate, 318.15 K

| solubility (mole fraction) | SMILES |
| --- | --- |
| 0.0663 | O=C(O)CCCCCCCC(=O)O |
| 0.102 | O=C(O)CCCCCC(=O)O |
| 0.00978 | O=C(O)CCCCCCC(=O)O |
| 0.227 | O=C(O)CCCC(=O)O |

Same assay, conditions: in ethyl acetate, 323.15 K

| solubility (mole fraction) | SMILES |
| --- | --- |
| 0.0964 | O=C(O)CCCCCCCC(=O)O |
| 0.128 | O=C(O)CCCCCC(=O)O |
| 0.0118 | O=C(O)CCCCCCC(=O)O |
| 0.307 | O=C(O)CCCC(=O)O |
